The experiment concerns the target T1, murine TLR4, MD2, and CD14 (Mus musculus, UniProt Q9JHF9+Q9QUK6).
T1 construct: expressed in transfected cells; host or cells: HEK293 (ATCC CRL1573), transient transfection with jetPEI
T1 sequence (Q9QUK6 26-835): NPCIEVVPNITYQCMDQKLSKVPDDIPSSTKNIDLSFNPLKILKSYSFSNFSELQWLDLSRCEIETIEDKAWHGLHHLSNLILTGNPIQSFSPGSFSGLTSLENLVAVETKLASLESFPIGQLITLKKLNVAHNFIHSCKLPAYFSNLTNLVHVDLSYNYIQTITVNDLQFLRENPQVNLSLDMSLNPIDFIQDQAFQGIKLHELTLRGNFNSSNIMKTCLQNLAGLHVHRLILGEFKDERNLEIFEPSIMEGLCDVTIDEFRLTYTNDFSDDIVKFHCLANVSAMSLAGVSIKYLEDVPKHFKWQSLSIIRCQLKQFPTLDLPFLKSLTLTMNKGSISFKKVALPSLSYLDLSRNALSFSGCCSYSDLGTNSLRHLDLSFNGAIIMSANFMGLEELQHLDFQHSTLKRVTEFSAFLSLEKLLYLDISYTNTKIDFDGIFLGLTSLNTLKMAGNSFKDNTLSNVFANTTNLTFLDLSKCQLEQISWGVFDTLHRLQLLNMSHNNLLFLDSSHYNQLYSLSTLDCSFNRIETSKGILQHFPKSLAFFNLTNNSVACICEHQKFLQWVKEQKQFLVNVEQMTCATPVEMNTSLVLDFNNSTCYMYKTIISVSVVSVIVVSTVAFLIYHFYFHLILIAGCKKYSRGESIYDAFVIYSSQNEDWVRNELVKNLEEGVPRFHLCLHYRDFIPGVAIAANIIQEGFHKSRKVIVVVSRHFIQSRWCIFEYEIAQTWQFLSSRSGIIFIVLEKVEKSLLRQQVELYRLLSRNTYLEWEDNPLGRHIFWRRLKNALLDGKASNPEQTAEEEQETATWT
T1 sequence (Q9JHF9 19-160): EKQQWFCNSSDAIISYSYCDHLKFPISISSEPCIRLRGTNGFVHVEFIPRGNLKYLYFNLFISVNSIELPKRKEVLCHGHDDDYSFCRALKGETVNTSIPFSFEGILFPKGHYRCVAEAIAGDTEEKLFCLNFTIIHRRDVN
Nature of the experiment: NF-κB luciferase reporter activation by CLs in HEK293 cells transfected with murine TLR4, MD2 and CD14. It counts as cell-based. To be noted: 6 h incubation. On the procedure:
Cells were seeded at 4 × 10^4 cells/mL in 96-well plates (200 μL/well) and transiently transfected 4 days later. Expression vectors containing an NF-κB transcription reporter vector-encoding firefly luciferase (10 ng/well pNF-κB-luc from Clontech), and a constitutively active reporter vector-encoding Renilla luciferase (5 ng/well phRG-TK; Promega), together with empty vector (pcDNA3.1 from Invitrogen Cat. N. V79020) and cDNA encoding human membrane CD14 (3 ng/well) and human or murine TLR4 and MD2 (3 ng/well) were mixed with jetPEI (Polyplus transfection Cat.N. 101-10N) and incubated with cells according to the manufacturer’s instructions.
After treatment supernatants were discarded, cells were washed with PBS and lysed with passive lysis buffer (Promega Cat.N. E1941). Luciferase and Renilla activity on cell lysates were quantified on a BioTek Synergy HT microplate reader using home-made luciferase reagent (20 mM Tricine, 2.67 mM MgSO4·7H2O, 0.265 mM (MgCO3)4Mg(OH)2·5H2O, 0.1 mM EDTA, 33.3 mM DTT, 530 μM ATP, 270 μM Acetyl Coenzyme A (Lithium salt), 470 μM luciferin (Biosynth), pH 7.8, diluted two times in water before use), or coelenterazine (Biosynth) dissolved in ethanol at 1 mg/mL and diluted 500 times in PBS before use as previously described. […]

Structures are written as SMILES.

For the compound `CCCCCCCCCCCCCC(=O)OC[C@H](COP(=O)(O)OCC(O)COP(=O)(O)OC[C@@H](COC(=O)CCCCCCCCCCCCC)OC(=O)CCCCCCCCCCCCC)OC(=O)CCCCCCCCCCCCC` (stereo partly shown) [C14:0 CL], the “activation of murine TLR4 (NF-κB)” value is given as “agonist”.

The values are drawn from paper PMC6697720, “Saturation of acyl chains converts cardiolipin from an antagonist to an activator of Toll-like receptor-4” (Cellular and Molecular Life Sciences: CMLS, 2019).
